# Entries after “also recorded” stand apart in the source; their conditions may differ. Read-outs that look alike come from different tables or passages of the source.
# Assays:
# [1] = tested on: E. coli DHB4 WT; assay: MIC of silver and ebselen on E. coli DHB4 redox phenotypes; type: cell-based, Escherichia coli; details: 24 h; for MIC: Escherichia coli, DHB4WT, read-out: MIC of ebselen in the presence of silver
# Protocol: Since Trx and GSH/Grx are major thiol-dependent systems, investigated were the effects of Ag^+ with ebselen in combination on Trx or GSH system-deficient E. coli redox mutants.
# Serial dilutions of ebselen and AgNO3 were added to the individual wells. The minimum inhibitory concentration (MIC) was determined after 24 h culture at 37° C.
# [2] = tested on: AB-1: Acinetobacter baumannii H#; assay: MIC of silver with antibiotics on clinical isolated MDR Gram-negative bacteria; type: cell-based; details: antibiotic 4 μM
# Protocol: (§1) There are five clinically most difficult-to-treat MDR Gram-negative pathogen species: Klebsiella pneumonia, Acinetobacter baumannii, Pseudomonas aeruginosa, Enterobacter cloacae and Escherichia coli. One strain from each species was isolated, and overnight cultures were diluted 1:1000 times in LB medium, and treated with serial concentrations of Ag^+ and antibiotics in combinations for 24 h (Table 10).
# (§2) Five clinical isolated MDR Gram-negative strains were grown until an OD600 nm of 0.4, and were diluted 1:1,000 into 100 μl LB medium in 96 micro-well plates. […] The cultures treated with the same serial dilutions of 100 μl ebselen and silver nitrate were used as the positive control.
# [3] = tested on: ECO-1: Escherichia coli 1139#; assay: as above; type: cell-based; details: antibiotic 4 μM
# Protocol: as §1, §2
# [4] = tested on: PA-1: Pseudomonas aeruginosa 1298#; assay: as above; type: cell-based; details: antibiotic 4 μM
# Protocol: as §1, §2
# [5] = tested on: E. coli DHB4; assay: E. coli DHB4 growth in micro-well plates, OD600 nm, 16 h; type: cell-based, Escherichia coli
# Protocol: The effect of silver nitrate with ebselen in combination on the growth of Gram-negative model bacteria, E. coli, was investigated in the microplates. DHB4 overnight cultures were diluted 1:1000 times in Luria-Bertani (LB) medium, and treated with ionic silver (Ag^+) as a nitrate salt (AgNO3) for 16 h.
# E. coli DHB4 cells overnight cultures were diluted 1:1000 times in Luria-Bertani (LB) medium and treated with serial concentrations of AgNO3 and/or ebselen for 16 h. The cell viability was determined by measuring the absorbance at 600 nm. The culture treated with 0.8% (v/v) DMSO was used as a control.
# E. coli DHB4 cells were grown until an OD600 nm of 0.4, and treated with serial dilutions of ebselen (0, 2, 4, 8 μM) for 16 h. The cell viability was determined by measuring the absorbance at 600 nm. The culture treated with 0.8% (v/v) DMSO was used as a control.
# [6] = tested on: GSH; assay: GSH amount in treated E. coli cell extracts, GR-coupled DTNB reduction; type: cell-based, Escherichia coli
# [7] = target: T1, E. coli TrxR (Escherichia coli, UniProt P0A9P4); type: cell-based; set-up: endogenous in cells; host or cells: E. coli DHB4; details: Ag^+ or ebselen alone
# Protocol: E. coli DHB4 cells were grown till the absorbance at OD600 nm, of 0.4 in LB medium, and the bacterial cells were treated with different dilutions of ebselen and AgNO3 for 10 min. Cells were harvested by centrifugation at 6,000 rpm for 5 min and thoroughly washed 3 times with PBS, then cells were re-suspended in lysis buffer (25 mM Tris.HCl, pH 7.5, 100 mM NaCl, 2.5 mM EDTA, 2.5 mM EGTA, 20 mM NaF, 1 mM Na3VO4, 20 mM sodium ß-glycerophosphate, 10 mM sodium pyrophosphate, 0.5% Triton X-100) containing protease inhibitor cocktail and lysed by sonication. The cell lysates were obtained by centrifugation at 13,000 rpm for 20 min and the protein concentration was measured by Lowry protein assay (Bio-Rad DC™).
# E. coli DHB4 TrxR activity in cell extracts was measured by a DTNB reduction activity assay.
# E. coli DHB4 cells were grown till the absorbance at OD600 nm of 0.4 in LB medium, and the bacterial cells were treated with 80 μM antibiotics and 5 μM AgNO3 for 10 and 60 min, respectively. The cultures treated with 80 μM ebselen and 5 μM AgNO3 were used as the positive control. […] The cell lysates were obtained by centrifugation at 13,000 rpm for 20 min and the protein concentrations were measured by the Lowry protein assay.
# E. coli DHB4 TrxR activity in cell extracts was measured by a DTNB reduction activity assay^23.
# Target sequence in this assay (P0A9P4 whole entry): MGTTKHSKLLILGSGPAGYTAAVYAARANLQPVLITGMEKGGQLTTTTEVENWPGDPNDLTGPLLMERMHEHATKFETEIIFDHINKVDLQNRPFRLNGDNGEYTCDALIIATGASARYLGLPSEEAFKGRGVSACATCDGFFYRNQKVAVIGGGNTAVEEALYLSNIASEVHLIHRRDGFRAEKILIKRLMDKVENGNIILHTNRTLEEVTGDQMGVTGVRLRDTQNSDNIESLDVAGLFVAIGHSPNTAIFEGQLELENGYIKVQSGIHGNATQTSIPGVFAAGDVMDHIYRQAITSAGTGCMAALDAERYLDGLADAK
# [8] = target: E. coli Trx1 (Escherichia coli, UniProt P0AA25)
# Protocol: (§3) Since ebselen is a known reversible competitive inhibitor of bacterial TrxR, the effect of Ag^+ on the activity of E. coli TrxR and Trx was investigated.
# (§4) Inhibition of recombinant bacterial TrxR by Silver was performed by using E. coli enzyme. The experiments were performed with 96 micro-well plates in the solution containing 50 mM Tris.HCl (pH 7.5), 200 μM NADPH, 1 mM EDTA, 1 mM DTNB, in the presence of 5 μM E. coli Trx. The absorbance at 412 nm was measured for 5 min with a VERSA micro-well plate reader and the slope of initial 2 min was used to represent TrxR activity. The Trx activity was detected by this method, coupled with the use of 100 nM E. coli TrxR instead of 5 μM E. coli Trx in the reaction mixture.
# [9] = target: T1, E. coli TrxR
# Protocol: as §3, §4
# Target sequence in this assay (P0A9P4 2-321 limits assumed): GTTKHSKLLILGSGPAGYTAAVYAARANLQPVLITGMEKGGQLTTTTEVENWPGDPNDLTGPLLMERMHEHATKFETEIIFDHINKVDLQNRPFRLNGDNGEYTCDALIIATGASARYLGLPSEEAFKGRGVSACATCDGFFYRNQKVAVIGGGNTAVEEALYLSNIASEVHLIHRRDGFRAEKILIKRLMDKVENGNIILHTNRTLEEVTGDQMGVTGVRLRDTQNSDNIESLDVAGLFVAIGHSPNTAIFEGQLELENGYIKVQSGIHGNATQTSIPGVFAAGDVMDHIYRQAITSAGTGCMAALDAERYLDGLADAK
# [10] = 5 μM Ag^+ alone or 20 μM ebselen alone, compared with control
# E. coli Trx1, sequence (P0AA25 2-109): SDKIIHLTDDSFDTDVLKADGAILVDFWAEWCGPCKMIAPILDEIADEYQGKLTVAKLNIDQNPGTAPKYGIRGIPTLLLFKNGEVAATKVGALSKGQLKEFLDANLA
structure (smiles),measurement,setting,value
"O=c1c2ccccc2[se]n1-c1ccccc1 [ebselen, 2-phenyl-1,2-benzisoselenazol-3(2H)-one]",MIC,[1]; Silver 0 μM,80 µM
same,MIC,[1]; Silver 0.625 μM,8 µM
same,MIC,[1]; Silver 1.25 μM,4 µM
same,MIC,[1]; Silver 2.5 μM,4 µM
same,MIC,[1]; Silver 5 μM,2 µM
same,MIC,[1]; Silver 10 μM,1 µM
same,MIC,[1]; Silver 20 μM,0.5 µM
same,MIC of silver in the presence of different antibiotics,[2],10 µM
same,MIC of silver in the presence of different antibiotics,[3],5 µM
same,MIC of silver in the presence of different antibiotics,[4],20 µM
same,effect on E. coli growth,"[5]; ebselen alone (2, 4, 8 μM), 16 h",no effects on bacterial growth; also recorded: no effect on the growth of E. coli
same,GSH levels,[6]; [10],neither 5 μM Ag^+ nor 20 μM ebselen modulated GSH levels
same,GSH levels,[6]; ebselen alone at 80 and 40 μM,reduced GSH levels
same,TrxR activities in cell extracts,[7],not influenced
"O=[N+]([O-])[O-].[Ag+] [silver, silver nitrate]",MIC of silver in the presence of ebselen,[1]; Ebselen 0 μM,40 µM
same,MIC of silver in the presence of ebselen,[1]; Ebselen 1 μM,10 µM
same,MIC of silver in the presence of ebselen,[1]; Ebselen 2 μM,5 µM
same,MIC of silver in the presence of ebselen,[1]; Ebselen 4 μM,1.25 µM
same,minimal inhibition concentration (MIC) of Ag^+,"[5]; Ag^+ alone, 16 h treatment",42 µM
same,MIC of Ag^+,"[5]; with 2 μM ebselen, 16 h treatment",4.2 µM
same,GSH levels,[6]; [10],neither 5 μM Ag^+ nor 20 μM ebselen modulated GSH levels
same,reversibility of the inhibition of Trx1,[8]; Trx1 activity after desalting,irreversible
same,activity of Trx,"[8]; along with the increase of Ag^+ concentration, 10 μM Trx1",decreased
same,inhibitory efficiency toward TrxR,[9]; in the presence of reduced E. coli Trx1,decreased
same,IC50,"[9]; read-out: IC50 on E. coli TrxR, 100 nM NADPH-pre-incubated E. coli TrxR",~50 nM
same,TrxR activities in cell extracts,[7],not influenced

# From patent US10653717B2, “Antibiotic compositions” (priority 2016, dated 2020)
